# Reference: patent publication US20260167641A1, “CRYSTAL FORM OF IMIDAZOPYRAZINE DERIVATIVE, PREPARATION METHOD THEREFOR AND USE THEREOF” (TRANSTHERA SCIENCES (NANJING), INC., priority 2022, published 2026)
# Assays:
# Format in all cases: physicochemical
# Hygroscopicity test = details: 25° C.±1° C.
# Experimental: The experimental procedure was conducted in accordance with the guidelines for the hygroscopicity test of drugs in Chinese Pharmacopeia (2020 Edition). • 1. A dry glass weighing bottle with a stopper (outer diameter: 50 mm, height: 15 mm) was taken and placed in a thermostatic drier at 25° C.±1° C. (with a saturated ammonium chloride solution at the bottom) on the day before the test. After 24 h. the bottle was taken out, and its weight (m1) was precisely weighed. • 2. […] The total weight (m2) was precisely weighed. • 3. The weighing bottle was left open, and both the bottle and its bottle cap were placed under the constant temperature and humidity conditions described above for 24 h. • 4. The bottle was well sealed with its bottle cap, and the total weight (m3) was precisely weighed.
# [formula] • 5. Hygroscopicity characteristics and hygroscopic weight gains are defined as follows. • deliquescent: sufficient water is absorbed to form a liquid; • extremely hygroscopic: the hygroscopic weight gain is not less than 15%; • hygroscopic: the hygroscopic weight gain is less than 15% but not less than 2%; • slightly hygroscopic: the hygroscopic weight gain is less than 2% but not less than 0.2%; • non-hygroscopic or almost non-hygroscopic: the hygroscopic weight gain is less than 0.2%.
# [1] = Solubility test in pH 4.5 acetate buffer solution
# Experimental: Appropriate amounts of crystal forms I, II, III, and the compound of formula (I) were weighed and placed into 15 mL centrifuge tubes separately. A pH 4.5 acetate buffer was added to each tube to prepare saturated solutions. The tubes were sealed and placed in a water bath thermostatic oscillator to shake at 37° C. and a rotation speed of 200 rpm for 24 h. After centrifugation, the supernatants were collected and diluted to the corresponding multiples. The concentrations were measured. The detection was conducted according to the 2020 edition of the Chinese Pharmacopoeia.
# Long-term stability test = assay: Long-term stability test
# Experimental: The samples were stored under the conditions of 25° C./60% RH (relative humidity) and 30° C./65% RH (relative humidity), respectively, and then collected at 1M, 2M, 3M, 6M, 9M, 12M, and 18M. Additionally, the samples were stored under the conditions of 40° C./75% RH (relative humidity) and then collected at 1M, 2M, 3M, and 6M. The appearance, total impurities, content, moisture, and crystal form changes (at 3M, 6M, and 12M) were examined and compared with the results on day 0.
structure (smiles),measurement,setting,value
"Nc1nccn2c(C34CCC(NC(=O)CN5CCOCC5)(CC3)C4)nc(-c3ccc(C(=O)Nc4cc(C(F)(F)F)ccn4)cc3)c12 (single isomer, unassigned) [Crystal form II, 4-(8-amino-3-(4-(2-morpholinoacetamido)bicyclo[2.2.1]heptan-1-yl)imidazo[1,5-a]pyrazin-1-yl)-N-(4-(trifluoromethyl)pyridin-2-yl)benzamide]",Hygroscopicity characteristic,Hygroscopicity test; 24 h,slightly hygroscopic (the hygroscopic weight gain is less than 2% but not less than 0.2%)
same,24 h percentage weight gain,Hygroscopicity test; saturated ammonium chloride solution,0.34%
same,Solubility compared to the amorphous form,[1],higher solubility
same,Solubility,"[1]; saturated solution, 37° C., 200 rpm, 24 h",375 µg/mL
same,Appearance,Long-term stability test; 0 day,Yellow solid
same,Content %,Long-term stability test; 0 day,98.3%
same,Crystal form XRPD,Long-term stability test; 0 day,Crystal form II
same,Moisture %,Long-term stability test; 0 day,0.23%
same,Total impurities %,Long-term stability test; 0 day,1.1%
same,"Changes in appearance, total impurities, content, and moisture","Long-term stability test; 6 months at 40° C./75% RH, 18 months at 25° C./60% RH and 30° C./65% RH",no significant changes
same,Appearance,"Long-term stability test; 25° C./60% RH, 1M",Yellow solid
same,Content %,"Long-term stability test; 25° C./60% RH, 1M",98.2%
same,Moisture %,"Long-term stability test; 25° C./60% RH, 1M",0.28%
same,Total impurities %,"Long-term stability test; 25° C./60% RH, 1M",1.1%
same,Appearance,"Long-term stability test; 25° C./60% RH, 2M",Yellow solid
same,Content %,"Long-term stability test; 25° C./60% RH, 2M",98.3%
same,Moisture %,"Long-term stability test; 25° C./60% RH, 2M",0.16%
same,Total impurities %,"Long-term stability test; 25° C./60% RH, 2M",1.2%
same,Appearance,"Long-term stability test; 25° C./60% RH, 3M",Yellow solid
same,Content %,"Long-term stability test; 25° C./60% RH, 3M",98.4%
same,Crystal form XRPD,"Long-term stability test; 25° C./60% RH, 3M",Crystal form II
same,Moisture %,"Long-term stability test; 25° C./60% RH, 3M",0.24%
same,Total impurities %,"Long-term stability test; 25° C./60% RH, 3M",1.1%
same,Appearance,"Long-term stability test; 25° C./60% RH, 6M",Yellow solid
same,Content %,"Long-term stability test; 25° C./60% RH, 6M",98.2%
same,Crystal form XRPD,"Long-term stability test; 25° C./60% RH, 6M",Crystal form II
same,Moisture %,"Long-term stability test; 25° C./60% RH, 6M",0.16%
same,Total impurities %,"Long-term stability test; 25° C./60% RH, 6M",1.1%
same,Appearance,"Long-term stability test; 25° C./60% RH, 9M",Yellow solid
same,Content %,"Long-term stability test; 25° C./60% RH, 9M",98.5%
same,Moisture %,"Long-term stability test; 25° C./60% RH, 9M",0.23%
same,Total impurities %,"Long-term stability test; 25° C./60% RH, 9M",1.1%
same,Appearance,"Long-term stability test; 25° C./60% RH, 12M",Yellow solid
same,Content %,"Long-term stability test; 25° C./60% RH, 12M",98.2%
same,Crystal form XRPD,"Long-term stability test; 25° C./60% RH, 12M",Crystal form II
same,Moisture %,"Long-term stability test; 25° C./60% RH, 12M",0.12%
same,Total impurities %,"Long-term stability test; 25° C./60% RH, 12M",1.1%
same,Appearance,"Long-term stability test; 25° C./60% RH, 18M",Yellow solid
same,Content %,"Long-term stability test; 25° C./60% RH, 18M",98.9%
same,Moisture %,"Long-term stability test; 25° C./60% RH, 18M",0.24%
same,Total impurities %,"Long-term stability test; 25° C./60% RH, 18M",1.1%
same,Appearance,"Long-term stability test; 30° C./65% RH, 1M",Yellow solid
same,Content %,"Long-term stability test; 30° C./65% RH, 1M",98.2%
same,Moisture %,"Long-term stability test; 30° C./65% RH, 1M",0.24%
same,Total impurities %,"Long-term stability test; 30° C./65% RH, 1M",1.1%
same,Appearance,"Long-term stability test; 30° C./65% RH, 2M",Yellow solid
same,Content %,"Long-term stability test; 30° C./65% RH, 2M",97.9%
same,Moisture %,"Long-term stability test; 30° C./65% RH, 2M",0.19%
same,Total impurities %,"Long-term stability test; 30° C./65% RH, 2M",1.2%
same,Appearance,"Long-term stability test; 30° C./65% RH, 3M",Yellow solid
same,Content %,"Long-term stability test; 30° C./65% RH, 3M",98.2%
same,Crystal form XRPD,"Long-term stability test; 30° C./65% RH, 3M",Crystal form II
same,Moisture %,"Long-term stability test; 30° C./65% RH, 3M",0.30%
same,Total impurities %,"Long-term stability test; 30° C./65% RH, 3M",1.1%
same,Appearance,"Long-term stability test; 30° C./65% RH, 6M",Yellow solid
same,Content %,"Long-term stability test; 30° C./65% RH, 6M",98.1%
same,Crystal form XRPD,"Long-term stability test; 30° C./65% RH, 6M",Crystal form II
same,Moisture %,"Long-term stability test; 30° C./65% RH, 6M",0.13%
same,Total impurities %,"Long-term stability test; 30° C./65% RH, 6M",1.1%
same,Appearance,"Long-term stability test; 30° C./65% RH, 9M",Yellow solid
same,Content %,"Long-term stability test; 30° C./65% RH, 9M",98.4%
same,Moisture %,"Long-term stability test; 30° C./65% RH, 9M",0.24%
same,Total impurities %,"Long-term stability test; 30° C./65% RH, 9M",1.1%
same,Appearance,"Long-term stability test; 30° C./65% RH, 12M",Yellow solid
same,Content %,"Long-term stability test; 30° C./65% RH, 12M",98.2%
same,Crystal form XRPD,"Long-term stability test; 30° C./65% RH, 12M",Crystal form II
same,Moisture %,"Long-term stability test; 30° C./65% RH, 12M",0.13%
same,Total impurities %,"Long-term stability test; 30° C./65% RH, 12M",1.1%
same,Appearance,"Long-term stability test; 30° C./65% RH, 18M",Yellow solid
same,Content %,"Long-term stability test; 30° C./65% RH, 18M",99.0%
same,Moisture %,"Long-term stability test; 30° C./65% RH, 18M",0.17%
same,Total impurities %,"Long-term stability test; 30° C./65% RH, 18M",1.1%
same,Content %,"Long-term stability test; 40° C./75% RH, 1M",98.0%
same,Appearance,"Long-term stability test; 40° C./75% RH, 2M",Yellow solid
same,Content %,"Long-term stability test; 40° C./75% RH, 2M",97.9%
same,Moisture %,"Long-term stability test; 40° C./75% RH, 2M",0.18%
same,Total impurities %,"Long-term stability test; 40° C./75% RH, 2M",1.2%
same,Appearance,"Long-term stability test; 40° C./75% RH, 3M",Yellow solid
same,Content %,"Long-term stability test; 40° C./75% RH, 3M",98.1%
same,Crystal form XRPD,"Long-term stability test; 40° C./75% RH, 3M",Crystal form II
same,Moisture %,"Long-term stability test; 40° C./75% RH, 3M",0.24%
same,Total impurities %,"Long-term stability test; 40° C./75% RH, 3M",1.1%
same,Appearance,"Long-term stability test; 40° C./75% RH, 6M",Yellow solid
same,Content %,"Long-term stability test; 40° C./75% RH, 6M",98.3%
same,Crystal form XRPD,"Long-term stability test; 40° C./75% RH, 6M",Crystal form II
same,Moisture %,"Long-term stability test; 40° C./75% RH, 6M",0.13%
same,Total impurities %,"Long-term stability test; 40° C./75% RH, 6M",1.1%
same,Appearance,"Long-term stability test; 40° C./75% RH, ^ IM",Yellow solid
same,Moisture %,"Long-term stability test; 40° C./75% RH, ^ IM",0.24%
same,Total impurities %,"Long-term stability test; 40° C./75% RH, ^ IM",1.1%
